From patent publication US20250215016A1, “ISOXAZOLE-HETEROCYCLIC DERIVATIVE, PHARMACEUTICAL COMPOSITION AND USE” (SHANGHAI SIMR BIOTECHNOLOGY CO., LTD, priority 2022, published 2025)
pKi: −log10 of the molar value.

Assays:
α5-GABAA receptor = α5-GABAA receptor (Homo sapiens (Human), UniProt P18507+P31644); experiment: Whole-cell patch clamp electrophysiology, inverse regulation activity in α5β3γ2-HEK293 cells; type: cell-based; conditions: compound 100 nM; GABA 0.05-0.06 μM (about EC7-8); clamped at −60 mV; read-out: Inverse regulation efficiency to α5-GABAA receptor
Source text: α, β and γ subunits are essential for the formation of a complete functional GABAA receptor. […] The specific subunit protein sequences are as follows: α5 subunit (protein sequence can be found in GenBank accession number: NM_000810.3); α2 subunit (protein sequence can be found in GenBank accession number: NM_000807.4); β3 subunit (protein sequence can be found in GenBank accession number: NM_000814.5); γ2 subunit (protein sequence can be found in GenBank accession number: NM_000816.3).
(§1) The above cell lines were subcultured. Amplification of α5β3γ2-HEK293 and α2β3γ2-HEK293 cells was used to test the affinity of the compounds to benzodiazepine site (BZD) of the GABAA receptor. During the passage of α5β3γ2-HEK293 cells, some of the suspended cells were spread on a glass slide pretreated with Poly-D-Lysine for electrophysiological testing.
The inverse regulation activity of the test drugs on α5-GABAA receptor was detected by an electrophysiological method. The specific method was as follows:
Compound concentration setting: the final concentration of the compounds used for compound screening was 100 nM. GABA concentration was 0.05-0.06 μM (about EC7-8). […] The extracellular fluid (ECS) ingredients for electrophysiology were as follows: 150 mM NaCl, 5 mM KCl, 2.5 mM CaCl2, 1 mM MgCl2, 10 mM HEPES and 10 mM glucose (pH 7.4); the electrode internal solution (ICS) formula for electrophysiology was as follows: 140 mM CsCl, 11 mM EGTA, 10 mM HEPES, 2 mM CaCl2, 1 mM MgCl2, 4 mM MgATP, 2 mM TEA (pH 7.3). The above reagents were all purchased from Sigma aldrich. GABA (γ-aminobutyric acid, from sigma aldrich, lot: A5385) powder was prepared into a stock solution with pure water and then diluted in ECS. The compound was first prepared into a 4 mM stock solution with DMSO, and then gradually diluted in corresponding concentrations of GABA-ECS. The solutions were all prepared fresh prior to electrophysiological testing.
Electrophysiological signal acquisition were performed by using EPC 10 amplifier and PatchMaster software (HEKA) or Axon 700 B amplifier and Clampex software (AXON). The recording electrode was made by drawing borosilicate glass (purchased from sutter), and has an electrode resistance of 4˜6 MΩ. Extracellular administration was carried out using ALA-VC-8PG (purchased from ALA, USA) system. A single independently grown cell was selected, and lysis was performed after the glass electrode and the cell forming a good seal, to form a whole cell mode. With the cellular membrane potential clamped at −60 mV, recording was carried out in the Gap-free mode. For the test, extracellular fluid was first applied extracellularly for about 20 seconds. After baseline (Iprebaseline) was stabilized, the extracellular fluid was switched to GABA-ECS. At this time, the current (Igaba) caused by GABA can be detected. At about 20-40 seconds, after the current stabilized, the extracellular fluid was switched to a mixed solution of the compound and GABA-ECS, until the current (Itreatment) caused by both the compound and GABA can be detected. Finally, the solution was switched to the extracellular fluid and the test was terminated after recording for 20-40 seconds.
The experimental results were analyzed using PatchMaster v2x90.1 or PatchMaster v2x90.3 software (EPC 10 amplifier) and Clampex10.6 software (Axon700B amplifier). The current value of each stage was calculated according to the average value of the stabilized current under the corresponding conditions. We defined the control current as Igaba−Iprebaseline, and the current after compound treatment as Itreatment−Iprebaseline. The inverse regulation activity of the compounds is expressed as a percentage and is calculated according to the following formula: Inverse regulation efficiency=[(Itreatment−Igaba)/(Igaba−Iprebaseline)]×100%.

[1] = Stability in simulated gastric fluid (SGF); type: physicochemical; conditions: 37° C., 1000 rpm
Method: Simulated gastric fluid (SGF), Manufacturer: Dongguan Chuangfeng Automation Technology Co., Ltd.; Product model: CF-006.
Oscillating constant temperature metal bath, Model: Thermo; Manufacturer: Digital Skaking Drybath.
Temperature: 37° C.; rotating speed: 1000 rpm; sampling time: 0, 4 hours.
Chromatographic column: Welch Xtimate C18 3.0×100 mm, 5 μm. Mobile phase: A: 0.04% trifluoroacetic acid (TFA)/H2O (v/v), B: acetonitrile (ACN). Gradient elution was performed according to the following table, flow rate: 1.0 mL/min; injection volume: 5 μL; column temperature: 35° C.; wavelength: 254 nm.
• (a) preparation of 0.04% TFA/H2O: 400 μL of TFA was measured, placed into 1 L of H2O, and homogenously mixed; • (b) Sample stock solution: about 3 mg of test sample was weighed, and prepared into a stock solution of 10 mmol/L using DMSO; • (c) 50 μL of the sample stock solution was taken, placed into a 5 mL volumetric flask, made up to the scale with the addition of SGF, and homogenously mixed. 400 μL of the solution was taken, four samples in parallel, and shaken at 1000 rpm and 37° C.; • (d) every two samples were taken after 0 and 4 hours respectively, 400 μL of acetonitrile was added, and homogenously mixed, followed by liquid phase injection, and calculation of the change % of the main peak area in the solution after 4 hours relative to 0 hour, two average value reports being taken at each time point.

[2] = biological target: human α5β3γ2 receptor (α5-GABAA receptor) (Homo sapiens (Human), UniProt P18507+P31644); experiment: Radioligand (3H-flunitrazepam) competition binding assay, BZD site; conditions: 3H-flunitrazepam 1 nM; HEK293 membranes expressing human α5β3γ2
Source text: α, β and γ subunits are essential for the formation of a complete functional GABAA receptor. In this example, HEK293 cell strains stably expressing human α5-GABAA receptor (comprising α5β3γ2 subunit) and α2-GABAA receptor (comprising α2β3γ2 subunit) were constructed and screened, respectively, by liposome transfection method (Felgner, P. L., et al., Proceedings of the National Academy of Sciences, 1987, 84:7413-7417). The specific subunit protein sequences are as follows: α5 subunit (protein sequence can be found in GenBank accession number: NM_000810.3); α2 subunit (protein sequence can be found in GenBank accession number: NM_000807.4); β3 subunit (protein sequence can be found in GenBank accession number: NM_000814.5); γ2 subunit (protein sequence can be found in GenBank accession number: NM_000816.3).
as §1
Flunitrazepam is a non-specific reagent that binds to the BZD site efficiently. The affinity of the compounds to the BZD sites of the human α5β3γ2 and α2β3γ2 receptors can be determined by competing the compound with ^3H-flunitrazepam (isotope ^3H-labeled flunitrazepam) for binding to these two receptors.
Membrane preparation: HEK293 cells stably expressing human α5β3γ2 receptor or α2β3γ2 receptor were collected, suspended in 50 mM Tris-HCl buffer (pH=7.4), homogenized on ice by a homogenizer for 20 seconds 10 times, and centrifuged at 4° C., 1000 g for 10 min. The supernatant was collected, and the above steps were repeated. The supernatant was centrifuged (33800 g; centrifuge purchased from Thermo, rotor model: A27-8×50) at 4° C. for 60 min, and the precipitate was resuspended in Tris buffer (50 mM Tris-HCl, 10 mM MgCl2, 0.5 mM EDTA, 10% glycerol). The precipitate was the cell membrane. Protein content was determined by BCA (Bicinchoninic Acid) method (BCA kit from Pierce (Annoron)). The cell membrane was prepared into 1 ml aliquot and stored at −80° C.
Radioligand competition binding assay: the assay was carried out in a 200 μL system (96-well plate from Agilent) with 100 μL of cell membrane. The concentration of ^3H-flunitazepam (from PerkinElmer, lot: NET567250 UC) was 1 nM and the concentration of test compound was in the range 1×10^−5-10^−6 M. Flumazenil (from Tocris; lot: 1318) was used as a control. 1 μL of 2 mM flumazenil (final concentration 10 μM) was added to the Low signal control well (Low control, LC) and 1 μL of DMSO (from Sigma aldrich, lot: 472301) was added to the High signal control well (High control, HC). The final target membrane protein concentration was 5 μg/well. All test compound sample stocks were 10 mM DMSO solutions. The working concentration of the samples is to dilute all samples with DMSO to 0.2 mM, and then perform 4-fold continuous gradient dilution for a total of 8 concentration gradients. The 96-well plate was sealed with a plate sealing membrane and then incubated on a shaker at room temperature for 1 hour. Meanwhile, GF/C filter plate was soaked with a plate soaking buffer (0.3% PEI, polyethyleneimine, purchased from Sigma aldrich, model: P314, stored at 4° C.) for at least 0.5 hours. After completion of binding incubation, the cells were collected with a cell collector onto the GF/C filter plate and washed four times with a plate washing buffer (50 mM Tris-HCl, pH 7.4, stored at 4° C.). […]

Row | SMILES | inhibition at 0.1 µM (α5-GABAA receptor) [%] | Residual content in simulated gastric juice after 4 hours (compared with 0 hour content) [1] | pKi [2]
1 | Cc1onc(-c2ccc(F)cc2)c1COc1ccc(-c2nnc3n2CCN(C)C3=O)cn1 [Compound 2, 3-(6-((3-(4-fluorophenyl)-5-methylisoxazol-4-yl)methoxy)pyridin-3-yl)-7-methyl-6,7-dihydro-[1,2,4]triazolo[4,3-a]pyrazin-8 (5H)-one] | 29 | 46% (4 hours) | 8.11
2 | Cc1onc(-c2ccc(F)cc2)c1COc1cnc(-c2cnn3c2CCC3)cn1 [Compound 3] | 24 | 102% (4 hours) | 8.78
3 | Cc1onc(-c2ccc(F)cc2)c1COc1cnc(-c2nnc3n2CCN(C2CCC2)C3=O)cn1 [Compound 4, 7-cyclobutyl-3-(5-((3-(4-fluorophenyl)-5-methylisoxazol-4-yl)methoxy)pyrazin-2-yl)-6,7-dihydro-[1,2,4]triazolo[4,3-a]pyrazin-8(5H)-one] |  | 89% (4 hours) | 
4 | Cc1onc(-c2ccc(F)cc2)c1COc1cnc(-c2cc3n(c(=O)n2)CC24CC(CN32)C4)cn1 [Compound 9, 3-(5-((3-(4-fluorophenyl)-5-methylisoxazol-4-yl)methoxy)pyrazin-2-yl)-7,8-dihydro-1H,6H,9H-7,8a-methanopyrrolo[1′,2′:3.4]imidazo[1,2-c]pyrimidin-1-one] |  | 64% (4 hours) | 
5 | Cc1onc(-c2ccc(F)cc2)c1COc1cnc(-c2nnn3c2COCC3)cn1 [Compound 12, 3-(5-((3-(4-fluorophenyl)-5-methylisoxazol-4-yl)methoxy)pyrazin-2-yl)-6,7-dihydro-4H-[1,2,3]triazolo[5,1-c][1,4]oxazine] | 24 | 93% (4 hours) | 8.59
6 | Cc1onc(-c2ccc(F)cc2)c1COc1cnc(-c2nnc3n2CCN(C)C3)cn1 [Compound 16] | 15 | 76% (4 hours) | 8.16
7 | Cc1onc(-c2ccc(F)cc2)c1COc1cnc(N2CCn3c(nnc3C(F)(F)F)C2=O)cn1 [Compound 26, 7-(5-((3-(4-fluorophenyl)-5-methylisoxazol-4-yl)methoxy)pyrazin-2-yl)-3-(trifluoromethyl)-6,7-dihydro-[1,2,4]triazolo[4,3-a]pyrazin-8(5H)-one] |  | 80% (4 hours) | 
8 | Cc1onc(-c2ccc(F)cc2)c1COc1cnc(N2CCn3c(C)nnc3C2)cn1 [Compound 27] | 39 | 63% (4 hours) | 8.41
9 | Cc1onc(-c2ccc(F)cc2)c1COc1cnc(N2CCn3cccc3C2=O)cn1 [Compound 45, 2-(5-((3-(4-fluorophenyl)-5-methylisoxazol-4-yl)methoxy)pyrazin-2-yl)-3,4-dihydropyrrolo [1,2-a]pyrazin-1(2H)-one] |  | 87% (4 hours) | 
10 | Cc1onc(-c2ccc(F)cc2)c1COc1cnc(-c2cc3n(c(=O)n2)CCN3C)cn1 [Compound 47, 7-(5-((3-(4-fluorophenyl)-5-methylisoxazol-4-yl)methoxy)pyrazin-2-yl)-1-methyl-2,3-dihydroimidazo[1,2-c]pyrimidin-5(1H)-one] | 31 | 82% (4 hours) | 
11 | Cc1onc(-c2ccc(F)cc2)c1COc1ccc(C(=O)NC2CCOCC2)cn1 [WO2009071476, Example 109, reference compound] |  | 15% (4 hours) | 
12 | Cc1onc(-c2ccc(F)cc2)c1COc1ccc(C(=O)N2CCS(=O)(=O)CC2)cn1 [WO2009071476, Example 112, reference compound] |  | 2% (4 hours) | 
13 | Cc1onc(-c2ccc(F)cc2)c1COc1ccc(C(=O)NC2CCOCC2)nn1 [WO2009071477, Example 63, reference compound] |  | 0% (4 hours) | 
